Some test systems named below: CCRF-CEM leukemia; HCC-2998 colon; RPMI-8226 leukemia; M14 melanoma; K-562 leukemia; RXF 393 renal; A549 NSCLC; ACHN renal; BT-549 breast; PC-3 prostate.
Common to all, as to test: NCI-60 cell line screen, 48 h

Several values for one entry are separate records, joined by “and”; a condition that tells them apart may be missing. Equal values may be shown once.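 Following 48 hours of exposure in 96-well plates, responses at five concentrations were used to interpolate endpoints linearly. GI50 marks 50% less growth. TGI: concentration producing complete growth inhibition.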

As for `CC1CC2(CCC1OCc1ccccc1)OCCO2` (stereo not given), the TGI in the experiment with CCRF-CEM leukemia, with HCC-2998 colon, in the experiment with RPMI-8226 leukemia, in the experiment on M14 melanoma, in the experiment on K-562 leukemia and in the experiment with RXF 393 renal was more than 100 µM throughout. Moreover, the TGI in the experiment with A549 NSCLC is more than 100 µM.
With `CCC[CH2][Sn]1([CH2]CCC)[O]C(=O)CN=Cc2ccccc2[O]1`, the GI50 is 0.323 µM in the experiment with ACHN renal; 0.525 µM in the experiment with HCC-2998 colon; 0.187 µM in the experiment on RPMI-8226 leukemia; 0.368 µM with M14 melanoma; 0.192 µM with K-562 leukemia; 0.144 µM in the experiment with RXF 393 renal. Besides, the GI50 in the experiment with A549 NSCLC is 1.81 µM. The TGI with ACHN renal is 1.1 µM; in the experiment with HCC-2998 colon, 1.81 µM; with RPMI-8226 leukemia it was 0.607 µM; in the experiment with M14 melanoma, 1.37 µM; in the experiment with K-562 leukemia it was 1.27 µM; in the experiment with RXF 393 renal, 0.306 µM. For the same molecule, in the experiment with A549 NSCLC, the TGI was determined as 3.55 µM.
With `O=CN1CCN(C=S)CC1`, the TGI in the experiment with ACHN renal, in the experiment on CCRF-CEM leukemia, with HCC-2998 colon, in the experiment with RPMI-8226 leukemia, in the experiment on M14 melanoma and with K-562 leukemia was more than 100 µM throughout. Besides, the TGI with RXF 393 renal and with A549 NSCLC was more than 100 µM throughout.
As for `NC(=O)c1c2c(cc3c(=O)c4ccccc4[nH]c13)CCCC2`, the TGI was more than 100 µM in the experiment with ACHN renal; 98.7 µM in the experiment with CCRF-CEM leukemia; more than 100 µM with HCC-2998 colon; more than 78.7 µM with RPMI-8226 leukemia; more than 100 µM with M14 melanoma; more than 97.3 µM in the experiment with K-562 leukemia. Also, the TGI with RXF 393 renal and with A549 NSCLC was more than 100 µM throughout.
For the molecule `COc1cc(OC)cc(-c2cncn2-c2ccc(-c3nc4cc(OC)cc(OC)c4s3)cc2)c1`, the GI50 in the experiment on ACHN renal was more than 100 µM; in the experiment on BT-549 breast, 3.09 µM; with HCC-2998 colon it was more than 100 µM; with K-562 leukemia, 3.22 µM; in the experiment with RXF 393 renal it was 6.58 µM. The TGI with ACHN renal, in the experiment with BT-549 breast, with HCC-2998 colon, in the experiment on K-562 leukemia and in the experiment on RXF 393 renal was more than 100 µM in each case.
As for `CN1C(=O)C(c2c[nH]c3ccccc23)=C(c2c(-c3c[nH]c4ccccc34)[nH]c3ccccc23)C1=O`, the GI50 was 3.4 µM with ACHN renal; 3.19 µM with CCRF-CEM leukemia; 3.54 µM with RPMI-8226 leukemia; 1.76 µM in the experiment on M14 melanoma; 3.07 µM in the experiment with K-562 leukemia; 1.64 µM with RXF 393 renal. In addition, the GI50 with A549 NSCLC was 3.83 µM; with PC-3 prostate it was 3.11 µM. In addition, the TGI in the experiment on ACHN renal was 13.9 µM; in the experiment on CCRF-CEM leukemia, 12.4 µM; with RPMI-8226 leukemia it was 17.5 µM; with M14 melanoma it was 4.79 µM; in the experiment with K-562 leukemia, more than 100 µM; in the experiment with RXF 393 renal it was 6.07 µM. Moreover, the TGI was determined as 13.9 µM in the experiment with A549 NSCLC and 17.3 µM in the experiment on PC-3 prostate.
In the case of `C=CCN(CC=C)CC(C(C)=O)C(c1ccccc1)c1c(O)c2ccccc2oc1=O` (stereo not given), the TGI with ACHN renal, with CCRF-CEM leukemia, with HCC-2998 colon, in the experiment with RPMI-8226 leukemia, in the experiment with M14 melanoma and in the experiment with K-562 leukemia was more than 100 µM in each case. Besides, the TGI with RXF 393 renal and in the experiment with A549 NSCLC was more than 100 µM in each case.
`N#C[C@H]1Nc2ccccc2[C@@H](O)C1O` (stereo not given in full): the TGI with ACHN renal, with CCRF-CEM leukemia, with HCC-2998 colon, with RPMI-8226 leukemia, in the experiment with M14 melanoma and in the experiment with K-562 leukemia was more than 100 µM in each case. Besides, the TGI in the experiment on RXF 393 renal, in the experiment with A549 NSCLC and with PC-3 prostate was more than 100 µM in each case.
Turning to `CC(=O)O[C@H]1CC[C@@]2(C)C(=CC[C@@H]3C2CC[C@]2(C)Nc4[nH]ncc4CC32)C1` (stereo not given in full), the TGI with ACHN renal was more than 100 µM; in the experiment on CCRF-CEM leukemia, 40.3 µM; in the experiment on HCC-2998 colon it was more than 100 µM; in the experiment on RPMI-8226 leukemia, 65.9 µM; with M14 melanoma, 42.9 µM; in the experiment with K-562 leukemia, 52.8 µM. Moreover, the TGI in the experiment with RXF 393 renal and with A549 NSCLC was more than 100 µM throughout.
As for `Cc1c(O)c(=O)ccn1CCO`, the TGI with ACHN renal, with CCRF-CEM leukemia, in the experiment with RPMI-8226 leukemia, in the experiment on M14 melanoma, in the experiment on K-562 leukemia and with RXF 393 renal was more than 100 µM throughout. This molecule also registered a TGI with A549 NSCLC of more than 100 µM.
In the case of `COc1ccccc1NC(=O)CC(=O)NNCC(=O)Nc1nnc(-c2ccccc2)o1`, the TGI with ACHN renal, in the experiment on HCC-2998 colon, in the experiment on RPMI-8226 leukemia, with M14 melanoma, in the experiment on K-562 leukemia and with A549 NSCLC was more than 100 µM each time.
For the molecule `Cc1cc(NC(=O)NC(=O)c2ccccc2NC(=O)CN)ccc1Oc1ncc(Br)cn1`, the GI50 in the experiment with ACHN renal is 5.25 µM; in the experiment with CCRF-CEM leukemia it was 0.0476 µM; with HCC-2998 colon it was 0.354 µM; in the experiment with RPMI-8226 leukemia, 0.306 µM; in the experiment with M14 melanoma it was 0.117 µM; in the experiment on K-562 leukemia it was 0.0285 µM. The GI50 is less than 0.01 µM in the experiment with RXF 393 renal and 0.0816 µM in the experiment on PC-3 prostate. In addition, the TGI in the experiment with ACHN renal was 40.7 µM and 80.3 µM; in the experiment with HCC-2998 colon, 18 µM and 2.68 µM; in the experiment on RPMI-8226 leukemia it was 57.1 µM and > 100 µM; with A549 NSCLC, 35.8 µM; in the experiment on PC-3 prostate it was 18.8 µM and > 100 µM.
Consider `COC(=O)C1=Cc2c(cc(OC)c(OC)c2OC)[C@H](c2ccc(OC)c(OC)c2OC)C1C(=O)OC` (stereo not given in full), for which the TGI with ACHN renal, in the experiment with CCRF-CEM leukemia, in the experiment with HCC-2998 colon, in the experiment with RPMI-8226 leukemia, in the experiment on M14 melanoma and with K-562 leukemia was more than 100 µM in each case. For the same molecule, the TGI in the experiment on RXF 393 renal and with A549 NSCLC was more than 100 µM in each case.
Take `O=C(O)CCCNS(=O)(=O)c1ccc2ccccc2c1`: the TGI with ACHN renal, in the experiment on CCRF-CEM leukemia, with HCC-2998 colon, in the experiment with RPMI-8226 leukemia, in the experiment with M14 melanoma and in the experiment on K-562 leukemia was more than 100 µM each time. Moreover, the TGI in the experiment with RXF 393 renal and in the experiment on A549 NSCLC was more than 100 µM throughout.

The record behind these values is PubChem BioAssay (NCI).
